Results as given in patent US7973162B2, “Modulators of muscarinic receptors” (Vertex Pharmaceuticals Incorporated, priority 2007, dated 2011).

Legend:
Type in all cases: cell-based
M1 muscarinic receptor = molecular target: T1, M1 muscarinic receptor (Homo sapiens, UniProt P11229); assay: Functional mobilization of intracellular calcium (FLIPR), M1-CHO cells; settings: for EC50: CHO cells expressing M1, calcium mobilization
T1 construct: expressed in transfected cells; host or cells: CHO (M1-CHO)
T1 sequence (P11229 1-460): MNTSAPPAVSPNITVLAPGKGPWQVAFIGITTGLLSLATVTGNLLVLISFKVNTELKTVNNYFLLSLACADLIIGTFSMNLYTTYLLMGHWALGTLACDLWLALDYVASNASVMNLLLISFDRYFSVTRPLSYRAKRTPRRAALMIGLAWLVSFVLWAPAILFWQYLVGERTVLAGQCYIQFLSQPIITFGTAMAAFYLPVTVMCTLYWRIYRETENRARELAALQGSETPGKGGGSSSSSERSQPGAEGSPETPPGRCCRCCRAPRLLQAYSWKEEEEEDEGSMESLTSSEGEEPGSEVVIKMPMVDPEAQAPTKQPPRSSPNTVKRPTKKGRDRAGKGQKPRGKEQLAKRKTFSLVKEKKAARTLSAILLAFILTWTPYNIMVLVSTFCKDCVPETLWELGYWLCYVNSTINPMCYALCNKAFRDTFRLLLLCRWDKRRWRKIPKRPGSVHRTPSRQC
Procedure: (§1) Functional Mobilization of Intracellular Calcium to Determine Muscarinic Receptor Activity:
(§2) CHO cells expressing muscarinic receptors (M1 to M5) are grown as monolayers in tissue culture flasks at 37° C. in a humidified atmosphere containing 5% CO2 and passaged every 3-5 days. The growth media is Dulbecco's modified eagles medium (DMEM, Gibco Cat# 12430-054), containing 25 mM Hepes and supplemented with Fetal Bovine Serum (Hyclone, cat #SH30071.03), 0.1 mM of MEM non-essential amino acids (GIBCO, Cat #11140-050), 1 mM MEM Sodium Pyruvate (GIBCO Cat #11360-070) and 100 units/ml of Penicillin G and 100 μg/ml of Streptomycin (GIBCO Cat #15140-122). The recombinant muscarinic receptor cell lines are grown under antibiotic pressure with media containing 25 μg/ml zeocin and 500 μg/ml G418 (M1-CHO), 4 μg/ml puromycin, 50 μg/ml zeocin and 2.5 μg/ml blasticidin (M2 and M4-CHO) or 50 μg/ml zeocin and 4 μg/ml puromycin (M3 and M5-CHO).
(§3) Cells are harvested at 80-90% confluence using Versene (GIBCO Cat #15040-066), collected by centrifugation and seeded 18-24 hrs prior to running the calcium assay at a density of 5,000-10,000 cells/well in […], clear-bottomed 384-well plates (BD Biocoat, poly-D-lysine, Cat#356663). The day of the experiment, the cells are washed with a plate washer (Bioteck Instruments, ELX 405) using bath1 buffer (140-mM NaCl, 4.5-mM KCl, 2-mM CaCl2, 1-mM MgCl2, 10-mM Hepes-Na, 10-mM Glucose, pH 7.4, with NaOH) containing 1 mM Probenecid. Next, the calcium dye Fluo-3 (25 μl/well of Fluo-3 AM at 4 μM, Molecular Probes F-1241, in Bath 1 buffer containing 1 mM Probenecid) is added to the 25 μl of Bath 1 remaining in each well after the plate wash and the dye is loaded at 37° C. in the tissue culture incubator for 60-90 min. The fluorescent dye is removed using the plate washer with Bath 1 containing 1 mM Probenecid, leaving 25 μl/well of this solution after the wash. Alternatively, cells can be loaded with the calcium indicator from Molecular Devices (Calcium 3 Assay Reagents, Cat #R7181) adding 5 μl of a 5× solution dye in Bath 1 containing 1 mM Probenecid (10 ml per dye flask cat #R7182 to generate a solution 20×) to 20 μl of the same buffer. After loading for 60 min, the experiment can be run without having to remove the dye.
(§4) Compounds are prepared at a 2× fold concentration in a 96-well plate (round bottom, Costar Corning cat #3656), by reconstituting the pre-spotted compounds in bath 1 containing 1 mM probenecid. The final concentration DMSO is 0.5%, and the amount of DMSO is normalized across the assay plate. To determine an agonist action of the compounds on muscarinic receptors, the reconstituted compounds are added (25 μl compound/well) to the cell assay plate (containing 25 μl/well) using the multi-channel robotic system of the FLIPR 3 Instrument (Molecular Devices, Sunnyvale, Calif.). To determine a functional inhibitory action of the compounds on muscarinic receptors, the reconstituted compounds are added (25 μl compound/well) to the assay plate and pre-incubated for 15 min prior to adding 25 μl of Carbachol at 3× the EC80 for each muscarinic subtype. Alternatively, the compounds can be co-applied simultaneously with the agonist. In both assay modes, the fluorescence is recorded for 60 sec (excitation wavelength is […] and emission wavelength 540 nm) using the FLIPR 3 instrument.
(§5) The potency, efficacy and selectivity of the muscarinic compounds were evaluated by screening the compound activity across the whole family (M1 to M5 cells). Compounds were also screened for activity on other proteins such as other GPCRs and ion channels to determine selectivity on M4 receptors.
(§6) Examples of activities and efficacies of the muscarinic compounds of formulae (I, Ia, and Ib) on modulating M1 and M4 receptors are shown below in Table 3. […]

M2 muscarinic receptor = molecular target: T2, M2 muscarinic receptor (Homo sapiens, UniProt P08172); assay: Functional mobilization of intracellular calcium (FLIPR), M2-CHO cells; settings: for EC50: CHO cells expressing M2, calcium mobilization
T2 construct: expressed in transfected cells; host or cells: CHO (M2-CHO)
T2 sequence (P08172 1-466): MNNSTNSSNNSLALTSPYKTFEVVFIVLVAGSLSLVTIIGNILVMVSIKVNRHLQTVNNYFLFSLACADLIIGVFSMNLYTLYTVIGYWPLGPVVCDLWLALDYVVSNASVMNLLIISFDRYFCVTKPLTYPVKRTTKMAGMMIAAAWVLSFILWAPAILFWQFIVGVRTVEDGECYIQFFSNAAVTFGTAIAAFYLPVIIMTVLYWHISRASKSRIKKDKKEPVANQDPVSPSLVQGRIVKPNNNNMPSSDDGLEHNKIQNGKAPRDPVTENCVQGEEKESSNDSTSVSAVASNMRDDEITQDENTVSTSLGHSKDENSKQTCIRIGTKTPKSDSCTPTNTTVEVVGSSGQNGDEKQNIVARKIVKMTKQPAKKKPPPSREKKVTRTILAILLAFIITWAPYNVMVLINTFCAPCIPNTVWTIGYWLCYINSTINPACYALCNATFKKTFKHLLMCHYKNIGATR
Procedure: as §1, §2, §3, §4, §5, §6

M3 muscarinic receptor = molecular target: T3, M3 muscarinic receptor (Homo sapiens, UniProt P20309); assay: Functional mobilization of intracellular calcium (FLIPR), M3-CHO cells; settings: for EC50: CHO cells expressing M3, calcium mobilization
T3 construct: expressed in transfected cells; host or cells: CHO (M3-CHO)
Procedure: as §1, §2, §3, §4, §5, §6

M4 muscarinic receptor = molecular target: T4, M4 muscarinic receptor (Homo sapiens, UniProt P08173); assay: Functional mobilization of intracellular calcium (FLIPR), M4-CHO cells; settings: for EC50: CHO cells expressing M4, calcium mobilization
T4 construct: expressed in transfected cells; host or cells: CHO (M4-CHO)
T4 sequence (P08173 1-479): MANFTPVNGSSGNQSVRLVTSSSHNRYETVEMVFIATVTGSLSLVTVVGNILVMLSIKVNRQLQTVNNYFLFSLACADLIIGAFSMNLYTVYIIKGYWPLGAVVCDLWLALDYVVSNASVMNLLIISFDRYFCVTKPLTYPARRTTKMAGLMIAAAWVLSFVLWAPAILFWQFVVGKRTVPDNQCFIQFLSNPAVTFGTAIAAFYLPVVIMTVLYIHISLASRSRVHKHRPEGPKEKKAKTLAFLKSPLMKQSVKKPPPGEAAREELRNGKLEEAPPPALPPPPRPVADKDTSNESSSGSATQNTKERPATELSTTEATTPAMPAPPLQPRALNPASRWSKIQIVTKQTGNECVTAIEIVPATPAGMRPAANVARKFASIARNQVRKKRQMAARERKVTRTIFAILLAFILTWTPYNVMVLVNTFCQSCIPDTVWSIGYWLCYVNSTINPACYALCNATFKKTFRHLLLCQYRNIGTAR
Procedure: as §1, §2, §3, §4, §5, §6

[1] = 100% efficacy = maximum response obtained with the Carbachol control

T3 sequence (P20309 whole entry): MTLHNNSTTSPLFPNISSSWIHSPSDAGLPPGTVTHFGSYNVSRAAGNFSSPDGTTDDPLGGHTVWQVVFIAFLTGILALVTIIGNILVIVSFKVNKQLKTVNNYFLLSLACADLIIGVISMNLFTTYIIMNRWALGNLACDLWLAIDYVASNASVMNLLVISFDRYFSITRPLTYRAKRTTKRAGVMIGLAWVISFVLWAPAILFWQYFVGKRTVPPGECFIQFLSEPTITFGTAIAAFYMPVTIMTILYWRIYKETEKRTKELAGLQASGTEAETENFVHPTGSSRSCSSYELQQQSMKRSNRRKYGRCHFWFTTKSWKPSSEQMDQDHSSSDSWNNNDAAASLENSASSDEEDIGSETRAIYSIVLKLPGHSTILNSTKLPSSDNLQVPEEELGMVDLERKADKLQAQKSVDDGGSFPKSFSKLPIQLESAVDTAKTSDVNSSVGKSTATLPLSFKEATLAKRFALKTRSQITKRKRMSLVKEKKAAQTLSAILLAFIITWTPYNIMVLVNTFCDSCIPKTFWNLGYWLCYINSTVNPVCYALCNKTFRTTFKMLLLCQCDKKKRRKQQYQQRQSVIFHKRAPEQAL

Row | SMILES | Emax (M1 muscarinic receptor; [1]) [%] | EC50 (M1 muscarinic receptor) [µM] | Emax (M2 muscarinic receptor; [1]) [%] | EC50 (M2 muscarinic receptor) [µM] | Emax (M3 muscarinic receptor; [1]) [%] | EC50 (M3 muscarinic receptor) [µM] | Emax (M4 muscarinic receptor; [1]) [%] | EC50 (M4 muscarinic receptor) [µM] | M1 Efficacy (M1 muscarinic receptor; [1]) | M2 Efficacy (M2 muscarinic receptor; [1]) | M3 Efficacy (M3 muscarinic receptor; [1]) | M4 Efficacy (M4 muscarinic receptor; [1])
1 | CCOC(=O)N1CCC(N2CCC3(CC2)C[C@H]2CC(=O)N(CCOC)[C@H]2c2ccccc23)CC1 [Compound 1] | 25 to 100 | < 2 | 25 to 100 | < 2 | < 25 | > 5 | 25 to 100 | < 2 |  |  |  | 
2 | CCOC(=O)N1CCC(N2CCC3(CC2)CC2CCOC2c2ccccc23)CC1 (stereo not drawn) [Compound 2] | 25 to 100 | < 2 | 25 to 100 | < 2 | < 25 | > 5 | 25 to 100 | < 2 |  |  |  | 
3 | CN1C(=O)C[C@@H]2CC3(CCN(C4CC5CCC(C5)C4)CC3)c3ccccc3[C@@H]21 (stereo partly drawn) [Compound 3] |  | < 2 |  | < 2 |  | > 5 |  | < 2 | ++ (efficacy was calculated to be from 100% to 25%) | + (efficacy was calculated to be less than 25%) | + (efficacy was calculated to be less than 25%) | ++ (efficacy was calculated to be from 100% to 25%)
4 | CCOC(=O)N1CCC(N2CCC3(CC2)CC2CC(=O)OC2c2ccccc23)CC1 (stereo not drawn) [Compound 4] | 25 to 100 | < 2 | 25 to 100 | < 2 | 25 to 100 | > 5 | 25 to 100 | < 2 |  |  |  | 
5 | O=C1C[C@@H]2CC3(CCN(C4CC5CCC(C5)C4)CC3)c3ccccc3[C@@H]2N1 (stereo partly drawn) [Compound 5] | 25 to 100 | < 2 | 25 to 100 | < 2 | < 25 | > 5 | 25 to 100 | < 2 |  |  |  | 
6 | c1ccc2c(c1)C1OCCC1CC21CCN(C2C[C@H]3CC[C@@H]2C3)CC1 (stereo partly drawn) [Compound 6] | < 25 | > 5 | < 25 | > 5 | < 25 | > 5 | 25 to 100 | < 2 |  |  |  | 
7 | O=C1C[C@@H]2CC3(CCN(C4CCCCC4)CC3)c3ccccc3[C@@H]2N1 [Compound 7] | 25 to 100 | < 2 | 25 to 100 | < 2 | < 25 | > 5 | 25 to 100 | < 2 |  |  |  | 
8 | c1ccc2c(c1)C1OCCC1CC21CCN(C2CC3CCC(C3)C2)CC1 (stereo not drawn) [Compound 8] | 25 to 100 | > 5 | < 25 | > 5 | < 25 | > 5 | 25 to 100 | < 2 |  |  |  | 
9 | CCOC(=O)N1CCC(N2CCC3(CC2)C[C@H]2CC(=O)N[C@H]2c2ccccc23)CC1 [Compound 9] | 25 to 100 | < 2 | 25 to 100 | < 2 | 25 to 100 | < 2 | 25 to 100 | < 2 |  |  |  | 
10 | CN1C(=O)C[C@@H]2CC3(CCN(C4CCCCCC4)CC3)c3ccccc3[C@@H]21 [Compound 10] | 25 to 100 | 2 to 5 | 25 to 100 | > 5 | < 25 | > 5 | 25 to 100 | < 2 |  |  |  | 
11 | c1ccc2c(c1)C1OCCC1CC21CCN(C2CCCCCC2)CC1 (stereo not drawn) [Compound 11] | 25 to 100 | 2 to 5 | < 25 | > 5 | < 25 | > 5 | 25 to 100 | < 2 |  |  |  | 
12 | CCOC(=O)N1CCC(N2CCC3(CC2)C[C@H]2CC(=O)N(C)[C@H]2c2ccccc23)CC1 [Compound 12] | 25 to 100 | < 2 | 25 to 100 | < 2 | < 25 | > 5 | 25 to 100 | < 2 |  |  |  | 
13 | CCOC(=O)N1CCC(N2CCC3(CC2)C[C@H]2CC(=O)N(CC(=O)O)[C@H]2c2ccccc23)CC1 [Compound 13] | 25 to 100 | > 5 | < 25 | > 5 | < 25 | > 5 | 25 to 100 | > 5 |  |  |  | 
14 | c1ccc2c(c1)C1OCCC1CC21CCN(CC2CCCCC2)CC1 (stereo not drawn) [Compound 14] | 25 to 100 | > 5 | < 25 | > 5 | < 25 | > 5 | 25 to 100 | < 2 |  |  |  | 
15 | CN1C(=O)C[C@@H]2CC3(CCN(C4CC5CCC(C5)C4)CC3)c3ccccc3[C@@H]21 (stereo partly drawn) [Compound 15] | 25 to 100 | 2 to 5 | < 25 | > 5 | < 25 | > 5 | 25 to 100 | < 2 |  |  |  | 
